Data set [1] in a line: Pharmacokinetics in Sprague-Dawley rats. It is filed as in vivo, rat. The conditions noted are these: for T1/2 (apparent terminal half-life): 1 mg/kg; for CL / AUXext: IV 1 mg/kg. How it is done:
Sprague Dawley rats (10–12 weeks old) obtained from Charles Rivers Laboratories (Como, Iltaly) were dosed with study peptide at 1 mg/kg IV and 3 mg/kg SC as a solution in PBS (0.2 mg/mL and 0.6 mg/mL respectively). Blood samples were collected from individual animals at the following time points: 0.083, 0.25, 0.5, 1, 3, 6, 8, 24, 48 and 72 h (IV route) and 0.25, 0.5, 1, 2, 4, 8, 12, 24, 48 and 72 h (SC route). All samples, collected into K3-EDTA tubes, were centrifuged and plasma was harvested and stored at − 80 °C until analysis. Two hundred μL of 0.1% formic acid in methanol containing 10 ng/mL warfarin as internal standard were added to 50 μL of standard, QC and PK study samples to obtain the protein precipitation. Each sample was vortexed and centrifuged, for 20 min, at 17,000 rcf at 4 °C. Ten microliters of the extracted plasma samples were injected onto the column. Chromatographic separation was performed on an Ultimate 3000 (Thermo Scientific) chromatography system using an XSelect Peptide CSH C18, (50 mm × 2.1 mm I.D., 2.5 μm, 130 Å; Waters Corporation) with a flow rate of 0.500 mL/min at 60 °C and a two-solvent linear gradient system. Solvents A (water) and B (acetonitrile) contained both 0.1% formic acid. […] The Ultimate 3000 was coupled to an Orbitrap QExactive™ mass spectrometer (Thermo Scientific) in positive mode. Quantitation was performed in full scan. The optimized source parameters were as follows: ion spray voltage 2.9 kV, sheath gas flow 50 a.u., aux gas flow 15 a.u., aux T 300 °C, capillary T 320 °C, S-lens RF level 50%. Full MS parameters were as follows: mass range 150–2000, AGC target 1 × 10^6, max injection time 250 ms, resolution 70,000 (FWHM @ 200 m/z). Data processing was performed using Xcalibur 3.0 (Thermo Scientific). Ion current of the [M + 5H]5 + of the SA10SC-RLX was extracted with 5 ppm window for quantitation (814.47219 m/z). A calibration curve with 12 standard points was prepared freshly on the day of analysis by spiking appropriate amounts of an intermediate working standard solution into blank rat plasma and ranged from 1.22 to 20,000 ng/mL (0.30–4910 nM). Three QC samples, each at six concentration levels from 5.0 to 15,000 ng/mL (1.22–3690 nM), were used for all analyses. Calibration curves were prepared by plotting the analyte to internal standard peak area ratio versus concentration. Calibration standards were fit by linear regression with 1/x^2 weighting. QC samples (n = 3) were used at six concentration levels. Accepted calibration curve contained minimum 7 concentration levels within ± 20% of nominal. Accepted QCs were within ± 25% of nominal. PK parameters were calculated by non-compartmental analysis using Watson LIMS 7.5.

In data set [2] the target is T1, hRXFP1 (F76V) (Homo sapiens, UniProt Q9HBX9, F76V).
T1 sequence (Q9HBX9 1-757 F76V): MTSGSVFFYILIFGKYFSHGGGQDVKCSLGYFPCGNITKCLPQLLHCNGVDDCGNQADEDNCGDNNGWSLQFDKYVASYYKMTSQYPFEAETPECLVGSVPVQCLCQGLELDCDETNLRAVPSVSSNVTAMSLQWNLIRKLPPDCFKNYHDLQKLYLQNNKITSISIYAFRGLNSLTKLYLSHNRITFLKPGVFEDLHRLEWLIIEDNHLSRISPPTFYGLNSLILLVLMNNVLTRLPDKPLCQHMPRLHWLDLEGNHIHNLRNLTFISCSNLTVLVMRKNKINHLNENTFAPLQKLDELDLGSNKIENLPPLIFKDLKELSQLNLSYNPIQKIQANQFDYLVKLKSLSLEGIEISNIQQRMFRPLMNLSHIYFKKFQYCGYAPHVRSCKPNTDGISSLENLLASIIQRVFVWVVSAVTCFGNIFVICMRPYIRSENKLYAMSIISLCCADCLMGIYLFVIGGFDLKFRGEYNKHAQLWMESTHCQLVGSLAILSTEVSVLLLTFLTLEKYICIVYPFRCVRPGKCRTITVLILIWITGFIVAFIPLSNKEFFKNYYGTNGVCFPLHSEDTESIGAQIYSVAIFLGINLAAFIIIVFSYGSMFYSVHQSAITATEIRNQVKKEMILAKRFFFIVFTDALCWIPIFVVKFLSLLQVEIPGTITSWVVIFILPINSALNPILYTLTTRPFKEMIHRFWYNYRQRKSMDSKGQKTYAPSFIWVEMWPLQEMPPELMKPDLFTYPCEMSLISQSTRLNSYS
The experiment in a line: cAMP production in HEK cells expressing hRXFP1 (F76V). The conditions noted are these: hRXFP1 F76V mutant, n = 4 experiments in duplicate. It is filed as cell-based. The procedure:
HEK cells were stably transduced with lentiviral constructs (Vectalys, MOI 20, batches rV2.1A1.5057 B, rV2.1A1.5056 B and rV2.1A1.5059 B) containing a bicistronic vectors encoding hRXFP1 (S69P) or hRXFP1 (F76V) or hRXFP1 (S69P/F76V) under the EF1 promoter followed by an internal ribosome entry site (IRES) elements to express the neomycin antibiotic resistance gene for selection with 500 μg/mL Geneticin (Invitrogen, #10131-019). Three days post transduction, HEK cells were grown in the presence of Genetecin. Positive individual clones were selected and amplified, and cAMP readout (nM) was used as described for other cell types at a cell density of 8000 cells/well.
In general terms: Cyclic AMP is a second messenger, typically raised through Gs and lowered through Gi signalling.

Data set [3] relates to wild type EA.hy926 cells. The experiment in a line: xCELLigence real time impedance in wild type EA.hy926 cells. It is filed as cell-based, human. The procedure: Cell impedance assays in both wild type EA.hy926 and EA.hy926_RXFP1 cell lines were performed using a MP RCTA xCELLigence Analyzer (ACEA Biosciences) on E-Plates. 20,000 cells/well were seeded in E-plates in 200 µL of growth medium and left to settle for 30 min at room temperature. Plates were then placed into the xCELLigence RTCA MP Instrument under 5% CO2 at 37 °C and impedance was continuously measured every 15 min overnight. The next day, a 4-h serum starvation was performed using the same medium but with 0.1% FCS (impedance measurement every 5 min).
Data analysis was performed using RTCA2.0 software according to ACEA recommendations. Raw impedance expressed as cell index was normalized for each well by dividing individual Cell Index values by baseline Cell index values obtained 5 min before peptide treatment in order to obtain Normalized Cell Index (NCI): mean NCI from 4 replicates for each condition are presented.

*1 amine or outer side, *2 acyl side, *3 side chain or, on linkers, in order; H or OH if unused. Where a SMILES comes first, the peptide text is derived from it. Side-chain parts run from the residue outwards. [ ]: non-standard residue; d: D form. The star is where a group is joined. γGlu = O=C(O)[C@H](CCC(=O)[*:2])N[*:1]; Stearoyl = CCCCCCCCCCCCCCCCCC(=O)*; Nle = CCCC[C@H](N)C(=O)O; AEEA = NCCOCCOCC(=O)O; Aib = CC(C)(N)C(=O)O

What is called Cmax is the peak of the concentration-time curve. What is called Tmax is the time at which the peak concentration occurs. The term AUC denotes the area under the concentration-time curve, a measure of exposure. A low value points to less exposure. The clearance is a measure of how efficiently the substance is removed, as volume per time.

As to `CCCCCCCCCCCCCCCCCC(=O)N[C@@H](CCC(=O)N[C@@H](CCC(=O)N[C@@H](CCC(=O)NCCOCCOCC(=O)NCCOCCOCC(=O)NCCOCCOCC(=O)NCCCC[C@H](NC(=O)[C@H](CCCCNC(C)=O)NC(=O)[C@H](CCCCN)NC(=O)[C@H](CCCNC(=N)N)NC(=O)C(C)(C)NC(=O)[C@H](CO)NC(=O)[C@H](Cc1c[nH]c2ccccc12)NC(=O)[C@@H](NC(=O)[C@H](CO)NC(=O)[C@H](CCCC)NC(=O)CNC(=O)[C@H](CCC(=O)O)NC(=O)C(C)(C)NC(=O)C(C)(C)NC(=O)[C@@H](NC(=O)[C@H](CCCCNC(C)=O)NC(=O)[C@H](C)NC(=O)[C@H](CCCNC(=N)N)NC(=O)[C@@H](NC(=O)[C@H](CCCCN)NC(=O)[C@H](CCC(=O)O)NC(=O)[C@H](CCCNC(=N)N)NC(=O)CNC(=O)[C@H](CCC(=O)O)NC(=O)[C@H](CC(C)C)NC(C)=O)C(C)C)[C@@H](C)CC)[C@@H](C)O)C(N)=O)C(=O)O)C(=O)O)C(=O)O` [SA10SC-RLX] (Ac-LEGREKVRAK(Ac)I[Aib][Aib]EG[Nle]STWS[Aib]RKK(Ac)K([AEEA-AEEA-AEEA-γGlu-γGlu-γGlu-Stearoyl])-NH2), the level at time molar at 12 h in data set [1] (Sprague-Dawley, rat, plasma, rats, SC 3 mg/kg, read-out: plasma concentration after 12 h) is around 1000 nM. Also, the “T1/2 (apparent terminal half-life)” value in data set [1] (male Sprague-Dawley rats, IV 1 mg/kg in PBS, plasma, LC-HRMS, non-compartmental analysis, mean of n = 3) was 4 h; in data set [1] (male Sprague-Dawley rats, IV 1 mg/kg in PBS, plasma, LC-HRMS, non-compartmental analysis, mean of n = 3, listed as SA10SC_RLX), 3.9 h. For the same compound, the CL in data set [1] (male Sprague-Dawley rats, plasma, LC-HRMS, animal 1) amounted to 0.48 mL/min/kg; in data set [1] (male Sprague-Dawley rats, plasma, LC-HRMS, animal 2), 0.44 mL/min/kg; in data set [1] (male Sprague-Dawley rats, plasma, LC-HRMS, animal 3) it was 0.38 mL/min/kg. Besides, the AUXext in data set [1] (male Sprague-Dawley rats, plasma, animal 1) is listed as 1.01%; in data set [1] (male Sprague-Dawley rats, plasma, animal 2), 1.01%; in data set [1] (male Sprague-Dawley rats, plasma, animal 3), 1.02%. In addition, the peak level in data set [1] (male Sprague-Dawley rats, SC 3 mg/kg in PBS, plasma, LC-HRMS, non-compartmental analysis, mean of n = 3) (Cmax) was 1500 nM. Moreover, the Tmax in data set [1] (male Sprague-Dawley rats, SC 3 mg/kg in PBS, plasma, LC-HRMS, mean of n = 3) is 8 h. Besides, the F in data set [1] (male Sprague-Dawley rats, SC 3 mg/kg vs IV 1 mg/kg, mean of n = 3) came out at 74%. This compound also came in with an AUCext in data set [1] (male Sprague-Dawley rats, SC 3 mg/kg, plasma, mean of n = 3) of 1.09%. For the same compound, the AUC in data set [1] (rat, male Sprague-Dawley rats, IV 1 mg/kg in PBS, plasma, LC-HRMS, non-compartmental analysis, mean of n = 3) is 9.57 µM·h; in data set [1] (rat, male Sprague-Dawley rats, SC 3 mg/kg in PBS, plasma, LC-HRMS, non-compartmental analysis, mean of n = 3), 21.2 µM·h. Besides, the clearance in data set [1] (rat, male Sprague-Dawley rats, IV 1 mg/kg in PBS, plasma, LC-HRMS, non-compartmental analysis, mean of n = 3, read-out: CL (plasma clearance)) worked out at 0.43 mL/min/kg. The C0 in data set [1] (rat, male Sprague-Dawley rats, IV 1 mg/kg in PBS, plasma, LC-HRMS, non-compartmental analysis, mean of n = 3, read-out: Co) stood at 3200 nM. In addition, in data set [1] (rat, male Sprague-Dawley rats, IV 1 mg/kg in PBS, plasma, LC-HRMS, non-compartmental analysis, mean of n = 3, read-out: Vss), the Vd amounted to 0.12 L/kg.

Regarding relaxin, the “cAMP response (efficacy)” value in data set [2] was “reduced in all RXFP1 mutants compared to the wild type construct”. Further, the impedance response entry in data set [3] was “Neither relaxin nor SA10SC-RLX induced a response”.

(Values after article PMC9705314, “Characterization of a new potent and long-lasting single chain peptide agonist of RXFP1 in cells and in vivo translational models” (Scientific Reports, 2022).)
